Source: US20230382910A1, “HETEROARYL COMPOUNDS FOR THE TREATMENT OF PAIN” (VERTEX PHARMACEUTICALS INCORPORATED, priority 2022, published 2023)

Target: human NaV 1.8 (Homo sapiens, UniProt Q9Y5Y9)
Assay: E-VIPR Assay Detecting and Measuring NaV Inhibition Properties
Assay type: cell-based
Conditions: HEK cells expressing a truncated form of human NaV 1.8; electrical stimulation, membrane potential FRET dyes; read-out: measured IC50 value in the E-VIPR Assay
Text: E-VIPR Assay Detecting and Measuring NaV Inhibition Properties
Sodium ion channels are voltage-dependent proteins that can be activated by inducing membrane voltage changes by applying electric fields. The electrical stimulation instrument and methods of use, referred to as E-VIPR, are described in International Publication No. WO 2002/008748 A3 and C.-J. Huang et al. Characterization of voltage-gated sodium channel blockers by electrical stimulation and fluorescence detection of membrane potential, 24 Nature Biotech. 439-46 (2006), both of which are incorporated by reference in their entirety. The instrument comprises a microtiter plate handler, an optical system for exciting the coumarin dye while simultaneously recording the coumarin and oxonol emissions, a waveform generator, a current- or voltage-controlled amplifier, and parallel electrode pairs that are inserted into assay plate wells. Under integrated computer control, this instrument passes user-programmed electrical stimulus protocols to cells within the wells of the microtiter plate.
16-20 hours prior to running the assay on E-VIPR, HEK cells expressing a truncated form of human NaV 1.8 with full channel activity were seeded into microtiter 384-well plates, pre-coated with matrigel, at a density of 25,000 cells per well. 2.5-5% KIR2.1 BacMam virus was added to the final cell suspension before seeding into cell plates. HEK cells were grown in Dulbecco's Modified Eagle's Medium (DMEM) supplemented with 10% FBS (Fetal Bovine Serum, qualified; Sigma #F4135), 1% NEAA (Non-Essential Amino Acids, Gibco #11140), 1% HEPES (Gibco #15630), 1% Pen-Strep (Penicillin-Streptomycin; Gibco #15140) and 5 μg/ml Blasticidin (Gibco #R210-01). Cells were expanded in 5-layer CellSTACK culture chambers or cell culture flasks with vented caps, with 90-95% humidity and 5% CO2.
Compound Loading Buffer (2× concentration): Na/TMA Cl Bath1 Buffer containing HS (omitted in experiments run in the absence of human serum (HS)) 50%, VABSC-1 1 mM, BSA 0.2 mg/ml (in Bath-1), KCl 9 mM, DMSO 0.625%.
Assay Protocol (7 Key Steps):
1) To reach the final concentration in each well, 375 nL of each compound was pre-spotted (in neat DMSO) into polypropylene compound plates at 240× desired final concentration from an intermediate stock concentration of 0.075 mM, in an 11-point dose response, 3-fold dilution, resulting in a top dose of 300 nM final concentration in the cell plate. Vehicle control (neat DMSO), and positive control (an established NaV1.8 inhibitor, 25 μM final in assay in DMSO) were added manually to the outermost columns of each plate respectively. The compound plate was backfilled with 45 μL per well of Compound Loading Buffer resulting in a 240-fold dilution of compound following a 1:1 transfer of compound into the cell plate (see Step 6). Final DMSO concentration for all wells in the assay was 0.625% (0.75% DMSO was supplemented to the Compound Loading Buffer for a final DMSO concentration of 0.625%). This assay dilution protocol was adjusted to enable a higher dose range to be tested in the presence of HS or if the final assay volume was altered.
2) Hexyl Dye Solution was prepared.
3) Cell plates were prepared. On the day of the assay, the media was aspirated, and the cells were washed three times with 80 μL of Bath-1 buffer, maintaining 25 μL residual volume in each well.
4) 25 μL per well of Hexyl Dye Solution was dispensed into the cell plates. The cells were incubated for 20 minutes at room temperature or ambient conditions in darkness.
5) 45 μL per well of Compound Loading Buffer was dispensed into compound plates.
6) The cell plates were washed three times with 80 μL per well of Bath-1 Buffer, leaving 25 µL of residual volume. Then 25 μL per well from compound plate was transferred to each cell plate. The mixture was incubated for 30 minutes at room temperature/ambient conditions. […]

Chain of human NaV 1.8 (Q9Y5Y9 126-399 limits assumed): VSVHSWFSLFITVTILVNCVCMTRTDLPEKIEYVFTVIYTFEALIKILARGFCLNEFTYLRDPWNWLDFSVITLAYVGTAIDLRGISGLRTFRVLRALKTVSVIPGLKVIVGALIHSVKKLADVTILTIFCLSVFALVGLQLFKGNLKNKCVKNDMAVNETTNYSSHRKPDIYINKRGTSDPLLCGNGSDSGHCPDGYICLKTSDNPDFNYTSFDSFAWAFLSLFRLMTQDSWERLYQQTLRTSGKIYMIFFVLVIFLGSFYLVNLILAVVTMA
Chain of human NaV 1.8 (Q9Y5Y9 660-890 limits assumed): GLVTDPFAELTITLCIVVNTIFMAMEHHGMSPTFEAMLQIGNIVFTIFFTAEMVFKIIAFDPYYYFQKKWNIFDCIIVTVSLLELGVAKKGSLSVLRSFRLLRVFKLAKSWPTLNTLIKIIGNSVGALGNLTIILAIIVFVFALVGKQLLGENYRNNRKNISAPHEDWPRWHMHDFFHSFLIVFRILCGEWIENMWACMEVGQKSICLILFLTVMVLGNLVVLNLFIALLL
Chain of human NaV 1.8 (Q9Y5Y9 1148-1722 limits assumed): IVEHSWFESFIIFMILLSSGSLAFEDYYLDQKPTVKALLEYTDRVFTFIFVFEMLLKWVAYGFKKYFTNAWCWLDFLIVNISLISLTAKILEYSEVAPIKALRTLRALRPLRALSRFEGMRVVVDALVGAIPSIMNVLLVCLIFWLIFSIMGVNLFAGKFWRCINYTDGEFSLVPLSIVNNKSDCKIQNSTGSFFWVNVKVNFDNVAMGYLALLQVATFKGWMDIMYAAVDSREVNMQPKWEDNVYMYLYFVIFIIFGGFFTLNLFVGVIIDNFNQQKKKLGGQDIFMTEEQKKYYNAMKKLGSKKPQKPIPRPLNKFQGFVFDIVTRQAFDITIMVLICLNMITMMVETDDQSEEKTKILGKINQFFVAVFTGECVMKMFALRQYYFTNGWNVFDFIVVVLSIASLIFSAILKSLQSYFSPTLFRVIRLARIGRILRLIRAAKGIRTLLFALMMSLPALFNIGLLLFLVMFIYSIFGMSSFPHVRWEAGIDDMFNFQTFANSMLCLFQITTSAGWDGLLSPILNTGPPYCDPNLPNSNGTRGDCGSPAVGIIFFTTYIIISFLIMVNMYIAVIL

Question: How did the IC50 turn out when Cc1nc(C(C)(C)C)c(C)nc1-c1cc(=O)c2c(C(N)=O)nccc2[nH]1 [Compound 246, 2-(5-tert-butyl-3,6-dimethyl-pyrazin-2-yl)-4-oxo-1H-1,6-naphthyridine-5-carboxamide] was run?
Answer: Its IC50 is 0.5 to 2 µM.

Question: How did the IC50 turn out when CC(C)(C)c1cc(F)c(-c2cc(O)c3c(C(N)=O)nccc3n2)c(F)c1 [Compound 247, 2-(4-(tert-butyl)-2,6-difluorophenyl)-4-hydroxy-1,6-naphthyridine-5-carboxamide] was run?
Answer: Its IC50 is 0.5 to 2 µM.

Question: With Cc1nc(-c2ccccc2)c(Cl)cc1-c1cc(=O)c2c(C(N)=O)nccc2[nH]1 [Compound 273, 2-(5-chloro-2-methyl-6-phenyl-3-pyridyl)-4-oxo-1H-1,6-naphthyridine-5-carboxamide] as the molecule, how does the IC50 read?
Answer: Its IC50 is 0.5 to 2 µM.

Question: Cc1nc(C2(C)CC2)c(Cl)cc1-c1cc(=O)c2c(C(N)=O)nccc2[nH]1 [Compound 286, 2-[5-chloro-2-methyl-6-(1-methylcyclopropyl)-3-pyridyl]-4-oxo-1H-1,6-naphthyridine-5-carboxamide] was tested. Which IC50 did it give?
Answer: Its IC50 is 0.5 to 2 µM.

Question: For Cc1nc(C(C)(C)CO)c(Cl)cc1-c1cc(=O)c2c(C(N)=O)nccc2[nH]1 [Compound 297, 2-[5-chloro-6-(2-hydroxy-1,1-dimethyl-ethyl)-2-methyl-3-pyridyl]-4-oxo-1H-1,6-naphthyridine-5-carboxamide], which IC50 is on record?
Answer: Its IC50 is 2 to 5 µM.

Question: For Cc1cc(C(C)(C)C)ccc1-c1cc(=O)c2nc(OCCN(C)C)ccc2[nH]1 [Compound 304, 2-(4-tert-butyl-2-methyl-phenyl)-6-[2-(dimethylamino)ethoxy]-1H-1,5-naphthyridin-4-one], which IC50 is on record?
Answer: Its IC50 is 0.5 to 2 µM.

Question: Which IC50 does the source give for COc1cc(C(C)C)cc(C)c1-c1cc(=O)c2ccccc2[nH]1 [Compound 337, 2-(4-isopropyl-2-methoxy-6-methyl-phenyl)-1H-quinolin-4-one] here?
Answer: The IC50 was 0.5 to 2 µM.

Question: For CC(C)(C)c1ccc(-c2cc(=O)c3cnccc3[nH]2)c(CCCO)c1 [Compound 346, 2-[4-tert-butyl-2-(3-hydroxypropyl)phenyl]-1H-1,6-naphthyridin-4-one], which IC50 is on record?
Answer: The IC50 was 2 to 5 µM.

Question: CC(C)(C)c1ccc(-c2[nH]c3ccncc3c(=O)c2Br)c(CCCO)c1 [Compound 347, 3-bromo-2-[4-tert-butyl-2-(3-hydroxypropyl)phenyl]-1H-1,6-naphthyridin-4-one] was tested. Which IC50 did it give?
Answer: Its IC50 is 2 to 5 µM.

Question: CC(C)CN(CC(C)C)c1nc2ccccc2cc1-c1cc(=O)c2c(C(N)=O)nccc2[nH]1 [Compound 351, 2-[2-(diisobutylamino)-3-quinolyl]-4-oxo-1H-1,6-naphthyridine-5-carboxamide] was tested. Which IC50 did it give?
Answer: The IC50 was 2 to 5 µM.

Question: CCCN(CCC)c1nc2ccccc2cc1-c1cc(=O)c2c(C(N)=O)nccc2[nH]1 [Compound 352, 2-[2-(dipropylamino)-3-quinolyl]-4-oxo-1H-1,6-naphthyridine-5-carboxamide] was tested. Which IC50 did it give?
Answer: The IC50 was 2 to 5 µM.

Question: CCCCN(CC)c1nc2ccccc2cc1-c1cc(=O)c2c(C(N)=O)nccc2[nH]1 [Compound 353, 2-[2-[butyl(ethyl)amino]-3-quinolyl]-4-oxo-1H-1,6-naphthyridine-5-carboxamide] was tested. Which IC50 did it give?
Answer: The IC50 was 0.5 to 2 µM.

Question: With Cc1cc(C(C)(C)CO)c(Cl)cc1-c1cc(=O)c2c(C(N)=O)nccc2[nH]1 [Compound 356, 2-[5-chloro-4-(2-hydroxy-1,1-dimethyl-ethyl)-2-methyl-phenyl]-4-oxo-1H-1,6-naphthyridine-5-carboxamide] as the molecule, how does the IC50 read?
Answer: Its IC50 is 2 to 5 µM.

Question: For Cc1nc(C(C)(C)C(=O)O)c(Cl)cc1-c1cc(=O)c2c(C(N)=O)nccc2[nH]1 [Compound 359, 2-[5-(5-carbamoyl-4-oxo-1H-1,6-naphthyridin-2-yl)-3-chloro-6-methyl-2-pyridyl]-2-methyl-propanoic acid], which IC50 is on record?
Answer: The IC50 was 2 to 5 µM.

Question: Which IC50 does the source give for CCOC(=O)c1nc(C)c(-c2nccc3[nH]c(-c4cc(Cl)c(C(C)(C)C)cc4C)cc(=O)c23)o1 [Compound 390, ethyl 5-[2-(4-tert-butyl-5-chloro-2-methyl-phenyl)-4-oxo-1H-1,6-naphthyridin-5-yl]-4-methyl-oxazole-2-carboxylate] here?
Answer: The IC50 was 0.5 to 2 µM.

Question: Cn1nc(C(C)(C)C)cc1-c1cc(=O)c2cc(F)ccc2[nH]1 [Compound 417, 2-(5-tert-butyl-2-methyl-pyrazol-3-yl)-6-fluoro-1H-quinolin-4-one] was tested. Which IC50 did it give?
Answer: The IC50 was 0.5 to 2 µM.

Question: With [2H]C([2H])([2H])C(c1cc(C)c(-c2cc(=O)c3c(C(N)=O)nccc3[nH]2)cc1Cl)(C([2H])([2H])[2H])C([2H])([2H])O [Compound 427, 2-(5-chloro-4-(1-hydroxy-2-(methyl-d3)propan-2-yl-1,1,3,3,3-d5)-2-methylphenyl)-4-oxo-1,4-dihydro-1,6-naphthyridine-5-carboxamide] as the molecule, how does the IC50 read?
Answer: The IC50 was 2 to 5 µM.
